We go through 28 molecules from patent US20220348558A1, “INHIBITORS OF ENCEPHALITIC ALPHAVIRUSES” (priority 2019, published 2022).

One experiment has as its system VEEV TC83. As to the kind of experiment: microbe, parasite or virus in culture. The experiment is classed as cell-based. Particulars: Venezuelan equine encephalitis virus, Vero 76, 48 h, read-out: VEEV TC83 EC50 nM.
Another experiment deals with WEEV California. The experiment in a line: microbe, parasite or virus in culture. The experiment is classed as cell-based. Particulars: Western equine encephalitis virus, Vero 76, 48 h, read-out: WEEV California EC50 nM.

Each structure is given as a SMILES string. A value given as a limit tells only on which side of the number the result lay.

In general, EC50 refers to the concentration that produces a half-maximal response. Regarding `COc1ccc(-n2c(C3CCCN3)nc3c(-c4cnc5ccccc5c4)cc(C#N)cc3c2=O)cc1F` (centres unmarked) [Example 123, 3-(3-fluoro-4-methoxyphenyl)-4-oxo-2-(pyrrolidin-2-yl)-8-(quinolin-3-yl)-3,4-dihydroquinazoline-6-carbonitrile], the EC50 in the experiment with VEEV TC83 and in the experiment with WEEV California was 1 to 50 nM throughout.
Turning to `COc1cccc(-c2cc(C#N)cc3c(=O)n(-c4ccc(OC)c(F)c4)c(C4CCCN4)nc23)c1` (centres unmarked) [Example 148, 3-(3-Fluoro-4-methoxyphenyl)-8-(3-methoxyphenyl)-4-oxo-2-(pyrrolidin-2-yl)-3,4-dihydroquinazoline-6-carbonitrile], the EC50 in the experiment on VEEV TC83 and in the experiment with WEEV California was 1 to 50 nM in each case.
Consider `COc1ccc(-n2c([C@H]3CCCN3)nc3c(-c4cncc(F)c4)cc([N+](=O)[O-])cc3c2=O)cc1F` [Example 93, (R)-3-(3-fluoro-4-methoxyphenyl)-8-(5-fluoropyridin-3-yl)-6-nitro-2-(pyrrolidin-2-yl) quinazolin-4 (3H)-one], for which the EC50 in the experiment on VEEV TC83 and in the experiment on WEEV California was 1 to 50 nM throughout.
For the molecule `COc1ccc(-n2c([C@H]3C[C@H](F)CN3)nc3c(C)cc([N+](=O)[O-])cc3c2=O)cc1F` [Example 62, 2-((2R,4S)-4-fluoropyrrolidin-2-yl)-3-(3-fluoro-4-methoxyphenyl)-8-methyl-6-nitroquinazolin-4 (3H)-one], the EC50 in the experiment with VEEV TC83 and with WEEV California was 51 to 150 nM in each case.
On to `COc1ccc(-n2c([C@H]3CCCN3C)nc3c(C)cc([N+](=O)[O-])cc3c2=O)cc1F` [Example 71, (R)-3-(3-fluoro-4-methoxyphenyl)-8-methyl-2-(1-methylpyrrolidin-2-yl)-6-nitroquinazolin-4 (3H)-one], for which the EC50 in the experiment with VEEV TC83 and with WEEV California was 51 to 150 nM each time.
For `COc1ccc(-n2c([C@@H]3CCCN3C)nc3c(C)cc([N+](=O)[O-])cc3c2=O)cc1F` [Example 70, (S)-3-(3-fluoro-4-methoxyphenyl)-8-methyl-2-(1-methylpyrrolidin-2-yl)-6-nitroquinazolin-4 (3H)-one], the EC50 in the experiment with VEEV TC83 and in the experiment on WEEV California was 1 to 50 nM throughout.
Regarding `COc1cccc(-n2c(C3CCCN3)nc3ccc([N+](=O)[O-])cc3c2=O)c1` (centres unmarked) [Example 32, 3-(3-methoxyphenyl)-6-nitro-2-(pyrrolidin-2-yl)quinazolin-4 (3H)-one], the EC50 in the experiment with VEEV TC83 and with WEEV California was more than 1000 nM each time.
Regarding `COc1ccc(-n2c([C@H]3Cc4ccccc4N3)nc3c(-c4ccc(C)nc4)cc(C#N)cc3c2=O)cc1F` [Example 128, (R)-3-(3-fluoro-4-methoxyphenyl)-2-(indolin-2-yl)-8-(6-methylpyridin-3-yl)-4-oxo-3,4-dihydroquinazoline-6-carbonitrile], the EC50 with VEEV TC83 is 1 to 50 nM; in the experiment on WEEV California, 151 to 500 nM.
The corresponding values for `COc1ccc(-n2c(-c3cn(C)cn3)nc3c(-c4ccc(C)nc4)cc(C#N)cc3c2=O)cc1F` [Example 200, 3-(3-fluoro-4-methoxyphenyl)-2-(1-methyl-1H-imidazol-4-yl)-8-(6-methylpyridin-3-yl)-4-oxo-3,4-dihydroquinazoline-6-carbonitrile] are more than 1000 nM and more than 1000 nM.
Consider `COc1c(F)cc(-n2c(C3CCCN3)nc3c(-c4ccc(C(C)(C)O)cc4)cc(C#N)cc3c2=O)cc1F` (centres unmarked) [Example 171, 3-(3,5-difluoro-4-methoxyphenyl)-8-(4-(2-hydroxypropan-2-yl)phenyl)-4-oxo-2-(pyrrolidin-2-yl)-3,4-dihydroquinazoline-6-carbonitrile], for which the EC50 in the experiment on VEEV TC83 and in the experiment with WEEV California was 51 to 150 nM in each case.
`COc1ccc(-n2c([C@H]3CCCN3)nc3c(C(F)(F)F)cc(C#N)cc3c2=O)cc1` [Example 74, (R)-3-(4-methoxyphenyl)-4-oxo-2-(pyrrolidin-2-yl)-8-(trifluoromethyl)-3,4-dihydroquinazoline-6-carbonitrile]: the EC50 with VEEV TC83 and in the experiment with WEEV California was 1 to 50 nM each time.
In the case of `CN1CCC(N2CCC[C@H]2c2nc3ccc([N+](=O)[O-])cc3c(=O)n2-c2ccccc2)CC1` [Example 7, (S)-2-(1-(1-methylpiperidin-4-yl)pyrrolidin-2-yl)-6-nitro-3-phenylquinazolin-4 (3H)-one], the EC50 in the experiment with VEEV TC83 and in the experiment with WEEV California was more than 1000 nM each time.
As for `COc1ccc(-n2c([C@H]3C[C@H](F)CN3)nc3c(-c4ccc(C)nc4)cc(C#N)cc3c2=O)cc1F` [Example 112, 3-(3-fluoro-4-methoxyphenyl)-2-((2R,4S)-4-fluoropyrrolidin-2-yl)-8-(6-methylpyridin-3-yl)-4-oxo-3,4-dihydroquinazoline-6-carbonitrile], the EC50 fell in the range of 1 to 50 nM in the experiment with VEEV TC83 and 51 to 150 nM with WEEV California.
The corresponding values for `O=c1c2cc([N+](=O)[O-])ccc2nc(C2CCCN2)n1-c1cccc(Cl)c1` (centres unmarked) [Example 39, 3-(3-chlorophenyl)-6-nitro-2-(pyrrolidin-2-yl) quinazolin-4 (3H)-one] are 51 to 150 nM and more than 1000 nM.
For the molecule `COc1ccc(-n2c([C@@H]3CCCN3)nc3c(C)cc([N+](=O)[O-])cc3c2=O)cc1F` [Example 69, (S)-3-(3-fluoro-4-methoxyphenyl)-8-methyl-6-nitro-2-(pyrrolidin-2-yl) quinazolin-4 (3H)-one], the figures for the EC50 in the experiment with VEEV TC83 and in the experiment with WEEV California were 151 to 500 nM and 51 to 150 nM, respectively.
With `COc1c(F)cc(-n2c(C3CCCN3)nc3c(-c4ccc(C#CC(C)(C)O)cc4)cc(C#N)cc3c2=O)cc1F` (centres unmarked) [Example 170, 3-(3,5-difluoro-4-methoxyphenyl)-8-(4-(3-hydroxy-3-methylbut-1-yn-1-yl)phenyl)-4-oxo-2-(pyrrolidin-2-yl)-3,4-dihydroquinazoline-6-carbonitrile], the EC50 in the experiment on VEEV TC83 and with WEEV California was 51 to 150 nM each time.
Turning to `O=c1c2cc([N+](=O)[O-])ccc2nc(C2CCCN2)n1-c1ccccc1` (centres unmarked) [Example 1, 6-nitro-3-phenyl-2-(pyrrolidin-2-yl) quinazolin-4 (3H)-one], the EC50 in the experiment on VEEV TC83 and in the experiment with WEEV California was 51 to 150 nM in each case.
Regarding `COc1ccc(-n2c([C@@H]3C[C@@H]4CCCC[C@@H]4N3)nc3c(-c4ccc(C)nc4)cc(C#N)cc3c2=O)cc1F` [Example 139, 3-(3-fluoro-4-methoxyphenyl)-8-(6-methylpyridin-3-yl)-2-((2S,3aS,7aS)-octahydro-1H-indol-2-yl)-4-oxo-3,4-dihydroquinazoline-6-carbonitrile], the EC50 in the experiment on VEEV TC83 fell in the range of 1 to 50 nM; with WEEV California, 51 to 150 nM.
The like results for `COc1ccc(-c2cc(C#N)cc3c(=O)n(-c4ccc(OC)c(F)c4)c(C4CCCN4)nc23)cc1` (centres unmarked) [Example 147, 3-(3-Fluoro-4-methoxyphenyl)-8-(4-methoxyphenyl)-4-oxo-2-(pyrrolidin-2-yl)-3,4-dihydroquinazoline-6-carbonitrile] were, in that order, 1 to 50 nM and 1 to 50 nM.
Turning to `Cc1ccc(-c2cc(C#N)cc3c(=O)n(-c4ccc(N(C)C)c(F)c4)c(C4CCCN4)nc23)cn1` (centres unmarked) [Example 145, 3-(4-(Dimethylamino)-3-fluorophenyl)-8-(6-methylpyridin-3-yl)-4-oxo-2-(pyrrolidin-2-yl)-3,4-dihydroquinazoline-6-carbonitrile], the EC50 with VEEV TC83 was in the range of 1 to 50 nM; with WEEV California, 151 to 500 nM.
The corresponding values for `COc1ccc(-n2c([C@H]3CCCN3)nc3c(N4CCOCC4)cc(C#N)cc3c2=O)cc1F` [Example 113, (R)-3-(3-fluoro-4-methoxyphenyl)-8-morpholino-4-oxo-2-(pyrrolidin-2-yl)-3,4-dihydroquinazoline-6-carbonitrile] are 1 to 50 nM and 51 to 150 nM.
The corresponding values for `COc1ccc(-n2c([C@@H]3CCCN3)nc3c(C)cc([N+](=O)[O-])cc3c2=O)cc1` [Example 56, (S)-3-(4-methoxyphenyl)-8-methyl-6-nitro-2-(pyrrolidin-2-yl) quinazolin-4 (3H)-one] are 1 to 50 nM and 51 to 150 nM.
With `COc1ccc(-n2c([C@H]3CCCN3)nc3c(-c4ccncc4)cc([N+](=O)[O-])cc3c2=O)cc1F` [Example 82, (R)-3-(3-fluoro-4-methoxyphenyl)-6-nitro-8-(pyridin-4-yl)-2-(pyrrolidin-2-yl) quinazolin-4 (3H)-one], the EC50 with VEEV TC83 and with WEEV California was 1 to 50 nM in each case.
Regarding `COc1ccc(-n2c([C@H]3CCCN3)nc3cccc([N+](=O)[O-])c3c2=O)cc1` [Example 49, (R)-3-(4-methoxyphenyl)-5-nitro-2-(pyrrolidin-2-yl)quinazolin-4 (3H)-one], the EC50 in the experiment on VEEV TC83 and with WEEV California was more than 1000 nM throughout.
In the case of `COc1ccc(-n2c(C3CCCN3)nc3c(-c4cnc(C)c(C)c4)cc(C#N)cc3c2=O)cc1F` (centres unmarked) [Example 137, 8-(5,6-dimethylpyridin-3-yl)-3-(3-fluoro-4-methoxyphenyl)-4-oxo-2-(pyrrolidin-2-yl)-3,4-dihydroquinazoline-6-carbonitrile], the EC50 with VEEV TC83 and in the experiment on WEEV California was 1 to 50 nM throughout.
`COc1ccc(-n2c([C@H]3CCCN3)nc3ccc([N+](=O)[O-])cc3c2=O)cc1` [Example 9, (R)-3-(4-methoxyphenyl)-6-nitro-2-(pyrrolidin-2-yl) quinazolin-4 (3H)-one]: the EC50 with VEEV TC83 and in the experiment with WEEV California was 1 to 50 nM in each case.
Turning to `COc1ccc(-n2c([C@H]3CCCN3)nc3c(C)cc(C#N)cc3c2=O)cc1F` [Example 52, (R)-3-(3-fluoro-4-methoxyphenyl)-8-methyl-4-oxo-2-(pyrrolidin-2-yl)-3,4-dihydroquinazoline-6-carbonitrile], the EC50 in the experiment with VEEV TC83 and in the experiment on WEEV California was 1 to 50 nM throughout.
For `COc1ccc(-n2c([C@H]3CCCN3)nc3ccc(C#N)c(F)c3c2=O)cc1` [Example 73, (R)-5-fluoro-3-(4-methoxyphenyl)-4-oxo-2-(pyrrolidin-2-yl)-3,4-dihydroquinazoline-6-carbonitrile], the EC50 in the experiment on VEEV TC83 and with WEEV California was more than 1000 nM throughout.
